From patent publication US20130190251A1, “METHOD FOR PREDICTING THE RESPONSIVENESS TO CHEMOTHERAPY” (priority 2010, published 2013)
“Also recorded” adds a separate entry of the source.

Legend:
Type in all cases: cell-based
[1] = tested on: HL-60 cells sensitive to daunorubicin (HL60S); assay: Apoptosis by DNA fragmentation after propidium iodide labeling, HL60S; settings: 15-hour incubation, gliotoxin 1 mg/ml or p21 peptide 50 mM
Procedure: (§1) FIG. 7. The p21 peptide restores apoptosis in daunorubicin-resistant HL60 cells. HL60S and HL60R were incubated overnight with the p21 peptide (50 mM) or with gliotoxin (1 mg/ml). After a 15-hour incubation, the effect of the p21 peptide on the percentage of apoptotic HL60 cells was measured by mitochondrial depolarization after DiOC6 labeling and by DNA fragmentation after propidium iodide labeling. Data are means±SEM of 5 independent experiments.
(§2) Apoptosis in HL-60 cells sensitive to daunorubicin (HL60S) was compared to apoptosis in HL-60 cells resistant to daunorubicin (HL60R). Apoptosis was induced either by gliotoxin that triggers apoptosis by targeting the mitochondria or the p21 peptide. The p21 peptide corresponds to residues 141 to 160 of p21 fused to the cell penetrating peptide RYIRS. HL60S and HL60R were incubated overnight with the p21 peptide (50 mM) or with gliotoxin (1 mg/ml). After a 15-hour incubation, the effect of the p21 peptide on the percentage of apoptotic HL60 cells was measured by mitochondrial depolarization after DiOC6 labeling and by DNA fragmentation after propidium iodide labeling (FIG. 7).

[2] = tested on: HL-60 cells resistant to daunorubicin (HL60R); assay: Apoptosis by DNA fragmentation after propidium iodide labeling, HL60R; settings: 15-hour incubation, gliotoxin 1 mg/ml or p21 peptide 50 mM
Procedure: as §1, §2

[3] = tested on: HL-60 cells resistant to daunorubicin (HL60R); assay: Apoptosis by mitochondrial depolarization after DiOC6 labeling, HL60R; settings: 15-hour incubation, gliotoxin 1 mg/ml or p21 peptide 50 mM
Procedure: as §1, §2

[4] = tested on: K562-doxorubicin resistant cells; assay: Analysis of drug resistance by DIOC2 efflux, K562 resistant; settings: cisplatin 2.5 μg/ml, DIOC2 50 ng/ml, 30 min at 37° C., FACS
Procedure: (§3) FIG. 6. Acquisition of drug resistance of myelocytic leukemia cell line K562 by doxorubicin. Analysis of inhibition by cisplatin of DIOC2 incorporation in myelocytic leukemia K562 cell line. Drug resistance is mediated by ABC transporters such as P-glycoprotein (P-gp) K562 cells were incubated with DIOC2 with or without cisplatin, and the fluorescence of DIOC2 incorporated in cells was assessed by FACS. In K562-doxorubicin sensitive cells, high fluorescence of DIOC2 is observed because of the lack of efflux. No effect of cisplatin is observed consistent with an absence of ABC transporter-mediated drug resistance.
(§4) The assay is based on the efflux of fluorescent P-gp substrate DiOC2 (3-ethyl-2-[3-(3-ethyl-2(3H)-benzoxazolylidene)-1-propenyl]benzoxazolium iodide) in doxorubicin-resistant cells, which can be inhibited by cisplatin. This efflux is absent in doxorubicin-sensitive cells resulting in an accumulation of DIOC2. DIOC2 fluorescence is measured by flow cytometry. Briefly, K562 at 1×10^6 cellules/ml were treated by cisplatin (2.5 μg/ml) in the presence of DIOC2 (50 ng/ml) for 30 min at 37° C. The cells are analyzed by flow cytometry.

[5] = tested on: K562-doxorubicin sensitive cells; assay: Analysis of drug resistance by DIOC2 efflux, K562 sensitive; settings: cisplatin 2.5 μg/ml, DIOC2 50 ng/ml, 30 min at 37° C., FACS
Procedure: as §3, §4

[6] = tested on: HL-60 cells sensitive to daunorubicin (HL60S); assay: Apoptosis by mitochondrial depolarization after DiOC6 labeling, HL60S; settings: 15-hour incubation, gliotoxin 1 mg/ml or p21 peptide 50 mM
Procedure: as §1, §2

| Compound | DNA fragmentation in HL60S (percentage of apoptotic HL60 cells) [1] | DNA fragmentation in HL60S (percentage of apoptotic HL60 cells) ([1]; listed as gliotoxin) | DNA fragmentation in HL60R (percentage of apoptotic HL60 cells) [2] | mitochondria depolarization in HL60R (percentage of apoptotic HL60 cells) [3] | effect on DIOC2 efflux (fluorescence of DIOC2 incorporated in cells) [4] | effect on fluorescence of DIOC2 incorporated in cells [5] | mitochondria depolarization in HL60S (percentage of apoptotic HL60 cells) [6] |
| --- | --- | --- | --- | --- | --- | --- | --- |
| CN1C(=O)[C@]23CC4=CC=C[C@H](O)[C@H]4N2C(=O)[C@@]1(CO)SS3 [Gliotoxin, gliotoxin] | triggers mitochondria depolarization and DNA fragmentation in HL60S | induces apoptosis in HL60S | no effect on HL60R | no effect on HL60R |  |  |  |
| N.N.[Cl][Pt][Cl] [cisplatin] |  |  |  |  | efflux which was reversed | No effect |  |
| p21 peptide: residues 141 to 160 of p21 fused to the cell penetrating peptide RYIRS (KRRQTSMTDFYHSKRRLIFSRYIRS; Synthetic peptide based on residues 141 to 160 of p21 fused to the RYIRS tag) |  |  | induces DNA fragmentation in HL60R more potently than in HL60S; also recorded: inducing DNA fragmentation in HL60R more potently than in HL60S | low but significant mitochondria depolarization |  |  | more modest effect |
